# Measured values from the supplement of paper PMC6045584.
# ± gives the standard deviation of the averaged measurements.
# Legend:
# CANERTINIB [1] = compound: T1, C=CC(=O)Nc1cc2c(Nc3ccc(F)c(Cl)c3)ncnc2cc1OCCCN1CCOCC1 [CANERTINIB]; test: surviving fraction relative to DMSO-only wells; higher = less growth inhibition; details: exposure time: 5 days
# Procedure, shortened: (§1)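 Surviving fraction was calculated by normalising CellTiter-Glo luminescence to the median of DMSO-only wells. Tumour cell lines in log phase were seeded in 384-well plates at 250–500 cells per well, and 24 hours later were exposed continuously for five days to inhibitors at 0.5, 1, 5, 10, 50, 100, 500 and 1000 nM.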
# SNX-5422 = compound: CC1(C)CC(=O)c2c(C(F)(F)F)nn(-c3ccc(C(N)=O)c(N[C@H]4CC[C@H](OC(=O)CN)CC4)c3)c2C1 [SNX-5422]; test: as above; details: exposure time: 5 days
# Procedure, shortened: as §1
# SAPACITABINE [2] = compound: T2, CCCCCCCCCCCCCCCC(=O)Nc1ccn([C@@H]2O[C@H](CO)[C@@H](O)[C@@H]2C#N)c(=O)n1 [SAPACITABINE]; test: as above; details: exposure time: 5 days
# Procedure, shortened: as §1
# BI-2536 = compound: CC[C@@H]1C(=O)N(C)c2cnc(Nc3ccc(C(=O)NC4CCN(C)CC4)cc3OC)nc2N1C1CCCC1 [BI-2536]; test: as above; details: exposure time: 5 days
# Procedure, shortened: as §1
# AFATINIB = compound: CN(C)C/C=C/C(=O)Nc1cc2c(Nc3ccc(F)c(Cl)c3)ncnc2cc1O[C@H]1CCOC1 [AFATINIB]; test: as above; details: exposure time: 5 days
# Procedure, shortened: as §1
# MDV3100 [3] = compound: T3, CNC(=O)c1ccc(N2C(=S)N(c3ccc(C#N)c(C(F)(F)F)c3)C(=O)C2(C)C)cc1F [MDV3100]; test: as above; details: exposure time: 5 days
# Procedure, shortened: as §1
# [4] = compound: Cn1cc(C2=Nc3cc(NC(=O)C(N)C4CCCCC4)cc4c3C2=CNNC4=O)cn1; test: as above; details: exposure time: 5 days
# Procedure, shortened: as §1
# TIOGUANINE = compound: Nc1nc2[nH]cnc2c(=S)[nH]1 [TIOGUANINE]; test: as above; details: exposure time: 5 days
# Procedure, shortened: as §1
# CANERTINIB [5] = compound: T1, CANERTINIB; test: area under dose-response curve of surviving fraction (unscaled, Aref=0) (surviving fraction x log10(nM)); higher = more resistant; details: exposure time: 5 days; dose range 0.5-1000 nM
# Procedure, shortened: (§2)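 Inhibitor was applied to tumour cell lines at eight concentrations (0.5 to 1000 nM) for five days in 384-well plates. Luminescence from CellTiter-Glo, scaled to DMSO-only wells, gave surviving fractions in three screens per line, and these were fitted by 3-parameter logistic regression with the drc R package. The area under the curve is an unscaled activity area. Aref was 0, and dose was on a log10 scale.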
# SAPACITABINE [6] = compound: T2, SAPACITABINE; test: as above; details: exposure time: 5 days; dose range 0.5-1000 nM
# Procedure, shortened: as §2
# MDV3100 [7] = compound: T3, MDV3100; test: as above; details: exposure time: 5 days; dose range 0.5-1000 nM
# Procedure, shortened: as §2
test system,measurement,setting,value
HS57T BREAST,surviving fraction,CANERTINIB [1]; 0.5 nM,0.946 ± 0.044
same,surviving fraction,CANERTINIB [1]; 1 nM,0.899 ± 0.047
same,surviving fraction,CANERTINIB [1]; 5 nM,0.893 ± 0.11
same,surviving fraction,CANERTINIB [1]; 10 nM,0.911 ± 0.02
same,surviving fraction,CANERTINIB [1]; 50 nM,0.919 ± 0.081
same,surviving fraction,CANERTINIB [1]; 100 nM,0.908 ± 0.012
same,surviving fraction,CANERTINIB [1]; 500 nM,0.843 ± 0.047
same,surviving fraction,CANERTINIB [1]; 1000 nM,0.692 ± 0.02
same,surviving fraction,SNX-5422; 0.5 nM,1.1 ± 0.014
same,surviving fraction,SNX-5422; 1 nM,1.09 ± 0.046
same,surviving fraction,SNX-5422; 5 nM,1.15 ± 0.034
same,surviving fraction,SNX-5422; 10 nM,1.13 ± 0.034
same,surviving fraction,SNX-5422; 50 nM,0.215 ± 0.011
same,surviving fraction,SNX-5422; 100 nM,0.22 ± 0.016
same,surviving fraction,SNX-5422; 500 nM,0.127 ± 0.0093
same,surviving fraction,SNX-5422; 1000 nM,0.126 ± 0.0052
same,surviving fraction,SAPACITABINE [2]; 0.5 nM,0.892 ± 0.016
same,surviving fraction,SAPACITABINE [2]; 1 nM,0.885 ± 0.028
same,surviving fraction,SAPACITABINE [2]; 5 nM,0.904 ± 0.051
same,surviving fraction,SAPACITABINE [2]; 10 nM,0.853 ± 0.027
same,surviving fraction,SAPACITABINE [2]; 50 nM,0.75 ± 0.024
same,surviving fraction,SAPACITABINE [2]; 100 nM,0.612 ± 0.045
same,surviving fraction,SAPACITABINE [2]; 500 nM,0.325 ± 0.037
same,surviving fraction,SAPACITABINE [2]; 1000 nM,0.246 ± 0.011
same,surviving fraction,BI-2536; 0.5 nM,1.1 ± 0.045
same,surviving fraction,BI-2536; 1 nM,0.986 ± 0.028
same,surviving fraction,BI-2536; 5 nM,0.216 ± 0.016
same,surviving fraction,BI-2536; 10 nM,0.114 ± 0.011
same,surviving fraction,BI-2536; 50 nM,0.0903 ± 0.0047
same,surviving fraction,BI-2536; 100 nM,0.0937 ± 0.0085
same,surviving fraction,BI-2536; 500 nM,0.156 ± 0.025
same,surviving fraction,BI-2536; 1000 nM,0.127 ± 0.009
same,surviving fraction,AFATINIB; 0.5 nM,1.05 ± 0.053
same,surviving fraction,AFATINIB; 1 nM,1.03 ± 0.056
same,surviving fraction,AFATINIB; 5 nM,1.13 ± 0.023
same,surviving fraction,AFATINIB; 10 nM,1.04 ± 0.051
same,surviving fraction,AFATINIB; 50 nM,1.11 ± 0.077
same,surviving fraction,AFATINIB; 100 nM,1.09 ± 0.076
same,surviving fraction,AFATINIB; 500 nM,0.787 ± 0.024
same,surviving fraction,AFATINIB; 1000 nM,0.423 ± 0.057
same,surviving fraction,MDV3100 [3]; 0.5 nM,0.866 ± 0.091
same,surviving fraction,MDV3100 [3]; 1 nM,0.918 ± 0.032
same,surviving fraction,MDV3100 [3]; 5 nM,0.963 ± 0.033
same,surviving fraction,MDV3100 [3]; 10 nM,0.947 ± 0.12
same,surviving fraction,MDV3100 [3]; 50 nM,0.847 ± 0.069
same,surviving fraction,MDV3100 [3]; 100 nM,0.955 ± 0.043
same,surviving fraction,MDV3100 [3]; 500 nM,0.923 ± 0.068
same,surviving fraction,MDV3100 [3]; 1000 nM,0.912 ± 0.041
same,surviving fraction,[4]; 0.5 nM,1.04 ± 0.02
same,surviving fraction,[4]; 1 nM,1.09 ± 0.027
same,surviving fraction,[4]; 5 nM,1.11 ± 0.019
same,surviving fraction,[4]; 10 nM,1.08 ± 0.047
same,surviving fraction,[4]; 50 nM,0.967 ± 0.07
same,surviving fraction,[4]; 100 nM,0.72 ± 0.027
same,surviving fraction,[4]; 500 nM,0.097 ± 0.0087
same,surviving fraction,[4]; 1000 nM,0.0793 ± 0.0038
same,surviving fraction,TIOGUANINE; 0.5 nM,0.9547 ± 0.0035
same,surviving fraction,TIOGUANINE; 1 nM,1.02 ± 0.087
same,surviving fraction,TIOGUANINE; 5 nM,0.99 ± 0.03
same,surviving fraction,TIOGUANINE; 10 nM,0.988 ± 0.029
same,surviving fraction,TIOGUANINE; 50 nM,0.928 ± 0.04
same,surviving fraction,TIOGUANINE; 100 nM,1.03 ± 0.06
same,surviving fraction,TIOGUANINE; 500 nM,0.928 ± 0.016
same,surviving fraction,TIOGUANINE; 1000 nM,0.945 ± 0.064
HMT3552 BREAST,surviving fraction,CANERTINIB [1]; 0.5 nM,0.832 ± 0.042
same,surviving fraction,CANERTINIB [1]; 1 nM,0.838 ± 0.058
same,surviving fraction,CANERTINIB [1]; 5 nM,0.804 ± 0.014
same,surviving fraction,CANERTINIB [1]; 10 nM,0.774 ± 0.029
same,surviving fraction,CANERTINIB [1]; 50 nM,0.828 ± 0.079
same,surviving fraction,CANERTINIB [1]; 100 nM,0.8597 ± 0.0078
same,surviving fraction,CANERTINIB [1]; 500 nM,0.696 ± 0.037
same,surviving fraction,CANERTINIB [1]; 1000 nM,0.604 ± 0.015
same,surviving fraction,SNX-5422; 0.5 nM,1.04
same,surviving fraction,SNX-5422; 1 nM,1.05
same,surviving fraction,SNX-5422; 5 nM,1.12
same,surviving fraction,SNX-5422; 10 nM,1.08
same,surviving fraction,SNX-5422; 50 nM,0.171
same,surviving fraction,SNX-5422; 100 nM,0.106
same,surviving fraction,SNX-5422; 500 nM,0.082
same,surviving fraction,SNX-5422; 1000 nM,0.079
same,surviving fraction,SAPACITABINE [2]; 0.5 nM,0.838 ± 0.009
same,surviving fraction,SAPACITABINE [2]; 1 nM,0.825 ± 0.075
same,surviving fraction,SAPACITABINE [2]; 5 nM,0.943 ± 0.027
same,surviving fraction,SAPACITABINE [2]; 10 nM,0.887 ± 0.053
same,surviving fraction,SAPACITABINE [2]; 50 nM,1.141 ± 0.0031
same,surviving fraction,SAPACITABINE [2]; 100 nM,1 ± 0.093
same,surviving fraction,SAPACITABINE [2]; 500 nM,0.418 ± 0.019
same,surviving fraction,SAPACITABINE [2]; 1000 nM,0.303 ± 0.024
same,surviving fraction,BI-2536; 0.5 nM,0.781
same,surviving fraction,BI-2536; 1 nM,0.352
same,surviving fraction,BI-2536; 5 nM,0.14
same,surviving fraction,BI-2536; 10 nM,0.192
same,surviving fraction,BI-2536; 50 nM,0.221
same,surviving fraction,BI-2536; 100 nM,0.205
same,surviving fraction,BI-2536; 500 nM,0.121
same,surviving fraction,BI-2536; 1000 nM,0.11
same,surviving fraction,AFATINIB; 0.5 nM,0.823
same,surviving fraction,AFATINIB; 1 nM,0.878
same,surviving fraction,AFATINIB; 5 nM,0.885
same,surviving fraction,AFATINIB; 10 nM,0.727
same,surviving fraction,AFATINIB; 50 nM,0.904
same,surviving fraction,AFATINIB; 100 nM,0.881
same,surviving fraction,AFATINIB; 500 nM,0.593
same,surviving fraction,AFATINIB; 1000 nM,0.278
same,surviving fraction,MDV3100 [3]; 0.5 nM,1.02 ± 0.073
same,surviving fraction,MDV3100 [3]; 1 nM,1.02 ± 0.079
same,surviving fraction,MDV3100 [3]; 5 nM,1.02 ± 0.013
same,surviving fraction,MDV3100 [3]; 10 nM,1.03 ± 0.065
same,surviving fraction,MDV3100 [3]; 50 nM,1.14 ± 0.031
same,surviving fraction,MDV3100 [3]; 100 nM,1.23 ± 0.023
same,surviving fraction,MDV3100 [3]; 500 nM,1.18 ± 0.053
same,surviving fraction,MDV3100 [3]; 1000 nM,1.24 ± 0.086
same,surviving fraction,[4]; 0.5 nM,0.92
same,surviving fraction,[4]; 1 nM,1.07
same,surviving fraction,[4]; 5 nM,1.02
same,surviving fraction,[4]; 10 nM,0.936
same,surviving fraction,[4]; 50 nM,0.999
same,surviving fraction,[4]; 100 nM,1.03
same,surviving fraction,[4]; 500 nM,0.176
same,surviving fraction,[4]; 1000 nM,0.097
same,surviving fraction,TIOGUANINE; 0.5 nM,1.11
same,surviving fraction,TIOGUANINE; 1 nM,1.06
same,surviving fraction,TIOGUANINE; 5 nM,1.05
same,surviving fraction,TIOGUANINE; 10 nM,1.04
same,surviving fraction,TIOGUANINE; 50 nM,1.05
same,surviving fraction,TIOGUANINE; 100 nM,1.12
same,surviving fraction,TIOGUANINE; 500 nM,0.591
same,surviving fraction,TIOGUANINE; 1000 nM,0.38
same,area under dose-response curve,CANERTINIB [5],2.58
same,area under dose-response curve,SAPACITABINE [6],2.99
same,area under dose-response curve,MDV3100 [7],3.66
